Laboratory results taken from ChEMBL document CHEMBL4346735, “Discovery and pharmacological evaluation of indole derivatives as potent and selective RORγt inverse agonist for multiple autoimmune conditions” (Bioorg Med Chem Lett, 2019).

Experiments:
[1] = target: T1, Nuclear receptor ROR-gamma (Homo sapiens) (UniProt P51449); assay: Transactivation of recombinant GAL4-DBD fused RORgammat LBD (unknown origin) expressed in HEK293T cells at 1 uM incubated for 18 to 24 hrs by dual-Glo luciferase assay relative to control; assay type: cell-based
T1 sequence (whole entry): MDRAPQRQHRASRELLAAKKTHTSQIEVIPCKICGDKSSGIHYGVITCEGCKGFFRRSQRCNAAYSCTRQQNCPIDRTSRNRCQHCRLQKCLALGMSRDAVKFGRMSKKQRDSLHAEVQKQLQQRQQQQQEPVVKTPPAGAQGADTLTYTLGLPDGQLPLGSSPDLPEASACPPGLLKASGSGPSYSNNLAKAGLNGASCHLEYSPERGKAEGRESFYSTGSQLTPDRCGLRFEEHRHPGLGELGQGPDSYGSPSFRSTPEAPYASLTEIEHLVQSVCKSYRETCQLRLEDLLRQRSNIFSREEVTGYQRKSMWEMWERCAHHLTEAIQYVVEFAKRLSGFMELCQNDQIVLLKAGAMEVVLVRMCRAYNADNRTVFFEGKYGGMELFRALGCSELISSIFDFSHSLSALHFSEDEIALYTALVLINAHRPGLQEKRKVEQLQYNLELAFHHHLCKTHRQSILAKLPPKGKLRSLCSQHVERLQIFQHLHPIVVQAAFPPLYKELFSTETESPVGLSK

[2] = Metabolic stability in mouse liver microsomes assessed as parent compound remaining at 1 uM preincubated for 5 mins followed by NADPH addition after 30 mins by LC-MS/MS analysis; assay type: ADME, Microsome; conditions: read-out: Stability
[3] = Metabolic stability in human liver microsomes assessed as parent compound remaining at 1 uM preincubated for 5 mins followed by NADPH addition after 30 mins by LC-MS/MS analysis; assay type: ADME, Microsome; conditions: read-out: Stability
[4] = Metabolic stability in rat liver microsomes assessed as parent compound remaining at 1 uM preincubated for 5 mins followed by NADPH addition after 30 mins by LC-MS/MS analysis; assay type: ADME, Microsome; conditions: read-out: Stability
[5] = target: T1, Nuclear receptor ROR-gamma (Homo sapiens); assay: Transactivation of recombinant GAL4-DBD fused RORgammat LBD (unknown origin) expressed in HEK293T cells at 10 uM incubated for 18 to 24 hrs by dual-Glo luciferase assay relative to control; assay type: cell-based
[6] = Drug metabolism in human pooled liver microsomes assessed as oxidation metabolic rate at 1 uM preincubated for 5 mins followed by NADPH addition after 30 mins by LC-MS/MS analysis; assay type: ADME, Microsome; conditions: 0.5 h
[7] = target: T2, Nuclear receptor ROR-gamma (Homo sapiens, UniProt P51449); assay: Transactivation of recombinant GAL4-DBD fused RORgammat LBD (unknown origin) expressed in HEK293T cells incubated for 18 to 24 hrs by dual-Glo luciferase assay; assay type: cell-based
T2 sequence (P51449 whole entry): T1 sequence (whole entry)

[8] = Drug metabolism in mouse liver microsomes assessed as oxidation metabolic rate at 1 uM preincubated for 5 mins followed by NADPH addition after 30 mins by LC-MS/MS analysis; assay type: ADME, Microsome; conditions: 0.5 h
[9] = Oral bioavailability in Balb/c mouse at 10 mg/kg administered via gavage by LC-MS/MS analysis; assay type: ADME, organism-based; conditions: in vivo
[10] = target: T3, Nuclear receptor ROR-gamma (Mus musculus, UniProt P51450); assay: Inverse agonist activity at RORgammat in mouse splenocytes derived naive T cells assessed as suppression of T cell differentiation to Th17 cells by measuring IL-17 secretion in presence of […]/anti-IFNgamma/TGFbeta/IL-6 for 6 days by ELISA; assay type: cell-based
T3 sequence (P51450 whole entry): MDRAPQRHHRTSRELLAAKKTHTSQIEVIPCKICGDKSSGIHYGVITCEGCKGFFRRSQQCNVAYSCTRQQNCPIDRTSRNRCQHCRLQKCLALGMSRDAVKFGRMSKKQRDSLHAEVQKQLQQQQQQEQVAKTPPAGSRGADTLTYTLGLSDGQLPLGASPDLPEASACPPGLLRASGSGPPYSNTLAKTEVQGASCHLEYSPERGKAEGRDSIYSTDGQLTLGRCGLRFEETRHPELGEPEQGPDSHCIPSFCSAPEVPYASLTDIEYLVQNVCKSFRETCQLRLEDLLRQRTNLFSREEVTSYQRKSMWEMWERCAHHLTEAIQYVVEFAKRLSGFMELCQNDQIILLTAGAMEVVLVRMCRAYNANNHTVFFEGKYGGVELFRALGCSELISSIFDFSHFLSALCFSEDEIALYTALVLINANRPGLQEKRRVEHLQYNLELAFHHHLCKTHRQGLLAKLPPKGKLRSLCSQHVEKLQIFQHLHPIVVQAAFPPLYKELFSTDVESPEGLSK

[11] = target: T4, Nuclear receptor ROR-gamma (Mus musculus) (UniProt P51450); assay: Transrepression of RORgammat in Balb/c mouse splenocytes assessed as inhibition of anti-CD3/anti-CD28 stimulated IL-17 gene expression at 3 uM measured after 24 hrs in presence of anti-CD3/anti-CD28; assay type: cell-based
T4 sequence (whole entry): T3 sequence (P51450 whole entry)

[12] = AUC (0 to t) in Balb/c mouse at 3 mg/kg, iv administered as single dose by LC-MS/MS analysis; assay type: ADME, organism-based; conditions: in vivo
[13] = Half life in Balb/c mouse at 3 mg/kg, iv administered as single dose by LC-MS/MS analysis; assay type: ADME, organism-based; conditions: in vivo
[14] = Drug metabolism in rat liver microsomes assessed as oxidation metabolic rate at 1 uM preincubated for 5 mins followed by NADPH addition after 30 mins by LC-MS/MS analysis; assay type: ADME, Microsome; conditions: 0.5 h
[15] = target: T4, Nuclear receptor ROR-gamma (Mus musculus); assay: Transrepression of RORgammat in Balb/c mouse splenocytes assessed as inhibition of anti-CD3/anti-CD28 stimulated IL-17 gene expression at 30 uM measured after 24 hrs in presence of anti-CD3/anti-CD28; assay type: cell-based
[16] = target: T4, Nuclear receptor ROR-gamma (Mus musculus); assay: Transrepression of RORgammat in Balb/c mouse splenocytes assessed as inhibition of anti-CD3/anti-CD28 stimulated IL-17 gene expression at 0.3 uM measured after 24 hrs in presence of anti-CD3/anti-CD28; assay type: cell-based
[17] = target: T2, Nuclear receptor ROR-gamma; assay: Inverse agonist activity at GST-tagged RORgammat LBD (unknown origin) using fluorescein-D22 co-activator peptide as substrate incubated for 1 hr by TR-FRET assay
[18] = Clearance in Balb/c mouse at 3 mg/kg, iv administered as single dose by LC-MS/MS analysis; assay type: ADME, organism-based; conditions: in vivo

Row | Compound | inhibition [1] [%] | remaining at 0.5 h, 1 µM [2] [%] | remaining at 0.5 h, 1 µM [3] [%] | remaining at 0.5 h, 1 µM [4] [%] | inhibition [5] [%] | Drug metabolism [6] [nmol/min/mg] | IC50 [7] [nM] | Drug metabolism [8] [nmol/min/mg] | bioavailability [9] [%] | IC50 [10] [nM] | inhibition [11] [%] | AUC(0-t) [12] [µM·h] | half-life [13] [min] | Drug metabolism [14] [nmol/min/mg] | inhibition [15] [%] | inhibition [16] [%] | IC50 [17] [nM] | clearance [18] [mL/min/kg]
1 | O=C(O)c1ccc(-n2cc(C(=O)c3c(Cl)cccc3Cl)c3ccncc32)cc1 | 27 | 100 | – | – | – | – | – | – | – | – | – | – | – | – | – | – | – | –
2 | O=C(O)c1ccc(-n2cc(C(=O)c3c(Cl)cccc3Cl)c3ncccc32)cc1 | – | 100 | 94 | 96 | 3 | – | – | – | – | – | – | – | – | – | – | – | – | –
3 | O=C(O)c1ccc(-c2nn(C(=O)c3c(Cl)cccc3Cl)c3ccccc23)cc1 | – | – | – | – | – | 0.04 | 20 | < 0.04 | 42 | 43 | 48 | 13.2 | 67.2 | 0.19 | 52 | 15 | 2 | 12.9
